In US12503473B2, “Triazolopyrimidine compounds and their use in treating cancer” (Dizal (Jiangsu) Pharmaceutical Co., Ltd., priority 2018, dated 2025):

Experiments:
MCT1 = molecular target: T1, MCT1 (Homo sapiens, UniProt P53985); experiment: Assay (c): FLIPR BCECF lactate influx in K562 cells; format: cell-based; conditions: mean of at least three repeats, read-out: MCT1 FLIPR pIC50 (K562) (converted)
T1 construct: a human erythroleukemia line predominantly expressing MCT1, a small amount of MCT2 and no MCT4; host or cells: K562
T1 sequence (P53985 1-500): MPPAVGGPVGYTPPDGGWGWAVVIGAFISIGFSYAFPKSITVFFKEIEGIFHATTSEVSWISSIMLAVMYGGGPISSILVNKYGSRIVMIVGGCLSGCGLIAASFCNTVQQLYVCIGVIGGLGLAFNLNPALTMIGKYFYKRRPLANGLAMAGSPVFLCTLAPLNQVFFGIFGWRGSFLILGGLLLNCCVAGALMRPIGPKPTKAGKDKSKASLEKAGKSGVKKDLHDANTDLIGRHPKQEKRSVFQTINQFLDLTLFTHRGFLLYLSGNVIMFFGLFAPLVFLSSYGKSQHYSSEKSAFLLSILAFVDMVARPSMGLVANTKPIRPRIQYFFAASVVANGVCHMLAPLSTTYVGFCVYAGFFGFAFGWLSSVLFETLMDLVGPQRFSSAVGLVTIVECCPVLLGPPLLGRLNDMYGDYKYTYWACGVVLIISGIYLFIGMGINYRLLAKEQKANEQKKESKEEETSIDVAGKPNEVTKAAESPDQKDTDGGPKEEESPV
Method: Cells were loaded with the pH sensitive dye BCECFAM(Invitrogen #B11150) before being washed to remove excess dye and seeded into the assay plates—directly onto the test compound—at a density of 15,000 cells/well (NCI—H358) or 30,000 cells/well (K562), in 30 μl HBSS with 1 mM [final] […] Assay plates were lidded and spun in a plate centrifuge at 170 g for 1 minute. Plates were then wrapped in foil and incubated in the dark for 1 hour at room temperature.
Following incubation with test compound, 10 μl of 25 mM Sodium-L-Lactate (Sigma #L7022) made up in HBSS with 1 mM [final] […] This addition was performed directly on the FLIPR Tetra platform (Molecular Devices) as part of a real-time kinetic read protocol. […] A percentage change from base-line was calculated for each test well and values normalised to control wells—treated with either DMSO (maximum assay signal) or chemistry related to that described in this patent (minimum assay signal)—before fitting concentration response curves to determine an IC50 value.

MCT4 [1] = molecular target: T2, MCT4 (Homo sapiens, UniProt O15427); experiment: cell-based
T2 sequence (O15427 1-465): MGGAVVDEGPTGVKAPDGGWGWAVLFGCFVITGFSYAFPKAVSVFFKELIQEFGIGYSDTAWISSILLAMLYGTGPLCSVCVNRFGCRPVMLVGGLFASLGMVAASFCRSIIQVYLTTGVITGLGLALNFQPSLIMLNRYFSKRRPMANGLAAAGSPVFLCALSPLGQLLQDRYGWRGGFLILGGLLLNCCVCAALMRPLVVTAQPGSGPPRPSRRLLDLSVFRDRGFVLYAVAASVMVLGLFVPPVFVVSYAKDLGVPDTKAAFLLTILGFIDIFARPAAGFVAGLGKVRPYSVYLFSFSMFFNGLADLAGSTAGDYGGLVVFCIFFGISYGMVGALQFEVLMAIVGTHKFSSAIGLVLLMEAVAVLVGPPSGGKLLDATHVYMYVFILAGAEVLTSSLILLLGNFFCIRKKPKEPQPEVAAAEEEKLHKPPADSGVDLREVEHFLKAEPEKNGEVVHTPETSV

MCT4 [2] = molecular target: T2, MCT4; experiment: Assay (d): FLIPR BCECF lactate influx in INS-1 MCT4 cells; format: cell-based, rat; parameters: expressed in transfected cells; conditions: INS-1 cells stably expressing human MCT4; mean of at least three repeats; read-out: MCT4 FLIPR pIC50 (INS-1) (converted)
Method: INS-1 MCT4 cells were generated through transfection of the parental cell background with the following DNA sequence, inserted into a pcDNA3.1 (ThermoFisher #V79020) mammalian expression vector:
The resultant cell pool was continually cultured at 37° C. and 5% CO2 under antibiotic selection in RPMI (Sigma #R0883) medium containing 1% L glutamine (Sigma #G7513), 10% FBS (Sigma #F7524), 10 mM [final] […] An individual clone was selected and expanded before being cryopreserved in a number of individual vials for continued use. Prior to testing in the biological assay, an individual INS-1 MCT4 cryovial was defrosted and continually passaged over a number of weeks—in the Geneticin selection media described previously—to obtain the requesite cell number.

MCT4 [3] = molecular target: T2, MCT4; experiment: Assay (a): lactate efflux from SK-Br-3 cells (lactate in media, 4 h); format: cell-based; parameters: a natively glycolytic human breast adenocarcinoma line predominantly expressing MCT4; host or cells: SK-Br-3; conditions: mean of at least three repeats (Example 32, marked *, two repeats), read-out: MCT4 lactate efflux pIC50 (SKBR3) (converted)
Method: Assay plates were lidded and incubated for 4 hours at 37° C. and 5% CO2.

[4] = test system: NCI H358 subcutaneous xenograft; experiment: Human lung cancer xenograft model, VEGFR TKI combination; format: in vivo, female nude mice; conditions: AZD2171 alone 3 mg/kg QD oral, 17 days dosing; p<0.001
Method: The in vivo efficacy of MCT4 inhibitors has been tested in human xenograft models. The NSCLC cell line NCI H358 can be grown as a subcutaneous xenograft in female nude mice and tumour volume calculated from bilateral caliper measurements. For efficacy studies three million NCI H358 cells were inoculated sub-cutaneously onto the left flank of the animal in a volume of 0.1 ml serum free media (RPMI) and matrigel. Animals were assigned into treatment groups 14 days after cell implantation and received either AZD2171 (3 mg/kg QD) (Wedge et al., (2005) Cancer Res. 65:4389-4400), a compound of Formula (I) (100 mg/kg BID) or the combination of both by oral gavage. A vehicle control of 0.5% hydroxy propyl methyl cellulose/0.1% Tween 80 was dosed twice daily given orally. Dosing was continued for 17 days and tumour volume, body weight and tumour condition were recorded twice weekly for the duration of the study.

Row | IC50 (MCT1) [nM] | IC50 (MCT4 [1]) [nM] | IC50 (MCT4 [2]) [nM] | IC50 (MCT4 [3]) [nM] | SMILES | tumour regression compared to the vehicle group [4] [%]
1 | > 25100 | 12.6 | 3.16 | 3.16 | Cc1nc2nc(C)c(O[C@@H]3CCN(c4ccc(-c5ccc(CN6CCOCC6)nc5)cn4)C3)c(C)n2n1 [Example 75, (R)-4-((6′-(3-((2,5,7-trimethyl-[1,2,4]triazolo[1,5-a]pyrimidin-6-yl)oxy)pyrrolidin-1-yl)-[3,3′-bipyridin]-6-yl)methyl)morpholine] | –
2 | > 25100 | 12.6 | 3.98 | 1.26 | Cc1nc2nc(C)c(O[C@@H]3CCN(c4cnc(-c5ccc(C(C)N6CCOCC6)cc5)cn4)C3)c(C)n2n1 (single isomer, unassigned) [Example 87] | –
3 | > 25100 | 50.1 | 31.6 | 3.16 | COCCN1CCN(Cc2ccc(-c3ccc(N4CC[C@@H](Oc5c(C)nc6nc(C)nn6c5C)C4)cc3)nn2)CC1 [Example 73, (R)-6-((1-(4-(6-((4-(2-methoxyethyl)piperazin-1-yl)methyl)pyridazin-3-yl)phenyl)pyrrolidin-3-yl)oxy)-2,5,7-trimethyl-[1,2,4]triazolo[1,5-a]pyrimidine] | –
4 | > 25100 | 7.94 | 3.98 | 1 | Cc1nc2nc(C)c(O[C@@H]3CCN(c4ccc(-c5ccc(CN6CCCOCC6)nn5)cc4)C3)c(C)n2n1 [Example 84, (R)-4-((6-(4-(3-((2,5,7-trimethyl-[1,2,4]triazolo[1,5-a]pyrimidin-6-yl)oxy)pyrrolidin-1-yl)phenyl)pyridazin-3-yl)methyl)-1,4-oxazepane] | –
5 | > 25100 | 20 | 6.31 | 1.26 | Cc1nc2nc(C)c(O[C@@H]3CCN(c4ccc(-c5ccc(CN6CCCCCC6)nn5)cc4)C3)c(C)n2n1 [Example 85, (R)-6-((1-(4-(6-(azepan-1-ylmethyl)pyridazin-3-yl)phenyl)pyrrolidin-3-yl)oxy)-2,5,7-trimethyl-[1,2,4]triazolo[1,5-a]pyrimidine] | –
6 | 5010 | 15.8 | 3.16 | 3.16 | Cc1nc2nc(C)c(C[C@@H]3CCN(c4cnc(-c5ccc(CN6CCCC6)cn5)cn4)C3)c(C)n2n1 [Example 81, (R)-2,5,7-trimethyl-6-((1-(5-(5-(pyrrolidin-1-ylmethyl)pyridin-2-yl)pyrazin-2-yl)pyrrolidin-3-yl)methyl)-[1,2,4]triazolo[1,5-a]pyrimidine] | –
7 | > 25100 | 10 | 2 | 2 | Cc1nc2nc(C)c(O[C@@H]3CCN(c4ccc(-c5ccc(CN6CCOCC6)cn5)cn4)C3)c(C)n2n1 [Example 74, (R)-4-((6′-(3-((2,5,7-trimethyl-[1,2,4]triazolo[1,5-a]pyrimidin-6-yl)oxy)pyrrolidin-1-yl)-[2,3′-bipyridin]-5-yl)methyl)morpholine] | –
8 | > 25100 | 12.6 | 3.16 | 2.51 | Cc1nc2nc(C)c(O[C@@H]3CCN(c4cnc(-c5ccc([C@@H](C)N6CCOCC6)cc5)cn4)C3)c(C)n2n1 (single isomer, unassigned) [Example 86] | –

Continued, compound first:

Row | SMILES | IC50 (MCT1) [nM] | IC50 (MCT4 [1]) [nM] | IC50 (MCT4 [2]) [nM] | IC50 (MCT4 [3]) [nM] | tumour regression compared to the vehicle group [4] [%]
9 | COc1cc2c(Oc3ccc4[nH]c(C)cc4c3F)ncnc2cc1OCCCN1CCCC1 [AZD2171, reference compound] | – | – | – | – | 33
10 | Cc1nc2nc(C)c(O[C@@H]3CCN(c4ccc(-c5cnc(CN6CCOCC6)cn5)cc4)C3)c(C)n2n1 [Example 70, (R)-4-((5-(4-(3-((2,5,7-trimethyl-[1,2,4]triazolo[1,5-a]pyrimidin-6-yl)oxy)pyrrolidin-1-yl)phenyl)pyrazin-2-yl)methyl)morpholine] | > 25100 | 5.01 | 1.58 | 0.631 | –
11 | Cc1nc2nc(C)c(O[C@@H]3CCN(c4ccc(-c5ccc(CN6CCCCC6)nn5)cc4)C3)c(C)n2n1 [Example 64, (R)-2,5,7-trimethyl-6-((1-(4-(6-(piperidin-1-ylmethyl)pyridazin-3-yl)phenyl)pyrrolidin-3-yl)oxy)-[1,2,4]triazolo[1,5-a]pyrimidine] | > 25100 | 50.1 | 15.8 | 1.58 | –
12 | Cc1nc2nc(C)c(O[C@@H]3CCN(c4ccc(-c5ccc(CN6C7CCC6CN(C)C7)nn5)cc4)C3)c(C)n2n1 [Example 66, 2,5,7-trimethyl-6-(((3R)-1-(4-(6-((3-methyl-3,8-diazabicyclo[3.2.1]octan-8-yl)methyl)pyridazin-3-yl)phenyl)pyrrolidin-3-yl)oxy)-[1,2,4]triazolo[1,5-a]pyrimidine] | > 25100 | 50.1 | 25.1 | 2 | –
13 | Cc1nc2nc(C)c(C[C@@H]3CCN(c4cnc(-c5ccc(CN6CCOCC6)cc5)cn4)C3)c(C)n2n1 [Example 60, (R)-4-(4-(5-(3-((2,5,7-trimethyl-[1,2,4]triazolo[1,5-a]pyrimidin-6-yl)methyl)pyrrolidin-1-yl)pyrazin-2-yl)benzyl)morpholine] | 12600 | 7.94 | 5.01 | 0.398 | –
14 | Cc1nc2nc(C)c(O[C@@H]3CCN(c4ccc(-c5cnc(CN6CCOCC6)nc5)cc4)C3)c(C)n2n1 [Example 69, (R)-4-((5-(4-(3-((2,5,7-trimethyl-[1,2,4]triazolo[1,5-a]pyrimidin-6-yl)oxy)pyrrolidin-1-yl)phenyl)pyrimidin-2-yl)methyl)morpholine] | > 25100 | 12.6 | 3.16 | 2 | –
15 | COCCN1CCN(Cc2ccc(-c3cnc(N4CC[C@@H](Cc5c(C)nc6nc(C)nn6c5C)C4)cn3)cc2)CC1 [Example 42, (R)-6-((1-(5-(4-((4-(2-methoxyethyl)piperazin-1-yl)methyl)phenyl)pyrazin-2-yl)pyrrolidin-3-yl)methyl)-2,5,7-trimethyl-[1,2,4]triazolo[1,5-a]pyrimidine] | > 25100 | 10 | 6.31 | 0.794 | –
